Measured values taken from US11358950B2, “SMAC mimetics used as IAP inhibitors and use thereof” (CHIA TAI TIANQING PHARMACEUTICAL GROUP CO., LTD., priority 2017, dated 2022).

Key:
MDA-MB-231 cells = assay: In-vitro cell viability test (CellTiter-Glo, 7 days); format: cell-based; conditions: Homo sapiens, 168 h, 7 days incubation
Protocol: RPMI 1640 medium (Invitrogen-22400089); fetal bovine serum (Invitrogen-10099141); Trypsin, 0.05% (1×) with EDTA 4Na (Invitrogen-25300062); luminescent cell viability assay kit (Promega-G7573); Dulbecco's phosphate buffered saline (HyClone-SH30028.01B); and 384-well plate (Corning-6007680). Envision Multi-label Analyzer.
1. 30 μL of MDA-MB-231 cell suspension, which contained 250 MDA-MB-231 cells, was added into the wells of a 384-microwell plate.
2. 20 μL of a test compound (the test compounds were formulated at a high concentration of 10 μM, the test compounds were subjected to a 5-fold gradient dilution, and each compound was diluted to 10 concentration gradients) was added, and then the cell plate was put back into a carbon dioxide incubator to be incubated for 7 days.
3. The cell plate was kept flat at room temperature for 30 minutes.
4. 20 μL of a Promega CellTiter-Glo reagent was added into each well of the cell plate.
5. After 10 minutes, the Envision Multi-label Analyzer was used for data reading.

[1] = system: MDA-MB-231 triple-negative breast cancer CDX; assay: In-vivo drug efficacy study 1, MDA-MB-231 CDX model; design: species or system BALB/c nude mice
Protocol: (§1) The in-vivo drug efficacy experiments were carried out in BALB/c nude mice implanted subcutaneously with human tumor cell line-derived xenograft (CDX) derived from patients suffering from MDA-MB-231 triple-negative breast cancer.
(§2) BALB/c nude mice, female, 6 to 8 weeks old, weighing about 18 to 22 g, were kept in a special pathogen-free environment and in separated ventilated cages (3 mice per cage). All cages, bedding and water were disinfected before use. All animals had free access to standard certified commercial laboratory diets. A total of 48 mice purchased from Shanghai BK Laboratory Animal Co., LTD were used for the study. Each mouse was inoculated subcutaneously in the right flank with tumor cells (10×10^6 cells in 0.2 mL of a phosphate buffer) for tumor growth. The administration was initiated when the average tumor volume reached about 147 cubic millimeters. The test compounds were orally administered daily at a dose of 30 mg/kg. Tumor volumes were measured with a two-dimensional caliper every 3 days. The volume was measured in cubic millimeters and calculated by the following formula: V=0.5 a×b^2, where a and b were the long and short diameters of a tumor, respectively. Anti-tumor efficacy was determined by dividing the average increase in tumor volume of animals treated with a compound by the average increase in tumor volume of untreated animals.

[2] = system: MDA-MB-231 triple-negative breast cancer CDX; assay: In-vivo drug efficacy study 2, MDA-MB-231 CDX model; design: species or system BALB/c nude mice
Protocol: as §1
as §2, with “110” for “147”

CN[C@@H](C)C(=O)N[C@H](C(=O)N1CCC[C@H]1Cn1cc(C(C)=O)c2cc(Cl)ccc21)C1CCCCC1 [Example 2]
IC50 (MDA-MB-231 cells): 54.8 nM
Tumor volume ([1]; Day 0, 30 mg/kg oral daily): 147 mm^3
Tumor volume ([1]; Day 6, 30 mg/kg oral daily): 214 mm^3
Tumor volume ([1]; Day 13, 30 mg/kg oral daily): 282 mm^3
Tumor volume ([1]; Day 20, 30 mg/kg oral daily): 810 mm^3
Tumor volume ([2]; Day 0, 30 mg/kg oral daily): 110 mm^3
Tumor volume ([2]; Day 5, 30 mg/kg oral daily): 111 mm^3
Tumor volume ([2]; Day 12, 30 mg/kg oral daily): 86 mm^3
Tumor volume ([2]; Day 20, 30 mg/kg oral daily): 177 mm^3
